From US20190077795A1, “ARGININE […] INHIBITORS AND USES THEREOF” (Epizyme, Inc., priority 2014, published 2019) come the findings set out here.

One test has as its target T1, human PRMT1 (Homo sapiens, UniProt Q99873).
T1 construct: GST-tagged PRMT1; made in house; host or cells: High Five insect cells (baculovirus, pFastBac1)
Nature of the test: PRMT1 Biochemical Assay. Particulars: peptide substrate, 3H-SAM Flashplate assay; read-out: PRMT1 IC50. The text has this:
S-adenosylmethionine (SAM), S-adenosylhomocysteine (SAH), bicine, Tween20, dimethylsulfoxide (DMSO), bovine skin gelatin (BSG), and Tris(2-carboxyethyl)phosphine hydrochloride solution (TCEP) were purchased from Sigma-Aldrich at the highest level of purity possible. ^3H-SAM was purchase from American Radiolabeled Chemicals with a specific activity of 80 Ci/mmol. 384-well streptavidin Flashplates were purchased from PerkinElmer.
Recombinant baculovirus were generated according to Bac-to-Bac kit instructions (Life Technologies). […] Infections were carried out at 27° C. for 48 hours, harvested by centrifugation, and stored at −80° C. for purification.
GST-tagged PRMT1 was eluted with 50 mM Tris, 2 mM glutathione, pH 7.8, dialysed in buffer A and concentrated to 1 mg/mL.
General Procedure for PRMT1 Enzyme Assays on Peptide Substrates.
(§1) The assays were all performed in a buffer consisting of 20 mM Bicine (pH=7.6), 1 mM TCEP, 0.005% BSG, and 0.002% Tween 20, prepared on the day of use. […] DMSO (1 ul) was added to Columns 11, 12, 23, 24, rows A-H for the maximum signal control and 1 ul of SAH, a known product and inhibitor of PRMT1, was added to columns 11, 12, 23, 24, rows I-P for the minimum signal control. A cocktail (40 ul) containing the PRMT1 enzyme was added by Multidrop Combi (Thermo-Fisher). The compounds were allowed to incubate with PRMT1 for 30 min at room temperature, then a cocktail (10 ul) containing SAM and peptide was added to initiate the reaction (final volume=51 ul). […] The assays were stopped by the addition of non-radiolabeled SAM (10 ul) to a final concentration of 300 uM, which dilutes the ^3H-SAM to a level where its incorporation into the peptide substrate is no longer detectable. 50 ul of the reaction in the 384-well polypropylene plate was then transferred to a 384-well Flashplate and the biotinylated peptides were allowed to bind to the streptavidin surface for at least 1 hour before being washed once with 0.1% Tween20 in a Biotek ELx405 plate washer. The plates were then read in a PerkinElmer TopCount plate reader to measure the quantity of ^3H-labeled peptide bound to the Flashplate surface, measured as disintegrations per minute (dpm) or alternatively, referred to as counts per minute (cpm).
(§2) Where dpm=disintegrations per minute, cmpd=signal in assay well, and min and max are the respective minimum and maximum signal controls.
(§3) Where top and bottom are the normally allowed to float, but may be fixed at 100 or 0 respectively in a 3-parameter fit. The Hill Coefficient normally allowed to float but may also be fixed at 1 in a 3-parameter fit. Y is the % inhibition and X is the compound concentration.

The target of a further test is T2, human PRMT6 (Homo sapiens, UniProt Q96LA8).
T2 construct: Flag-PRMT6-His; made in house; host or cells: HEK 293F cells (BacMam baculovirus, pFastBacMam)
Nature of the test: PRMT6 Biochemical Assay.
Excerpt: S-adenosylmethionine (SAM), S-adenosylhomocysteine (SAH), bicine, Tween20, dimethylsulfoxide (DMSO), bovine skin gelatin (BSG), sodium butyrate and Tris(2-carboxyethyl)phosphine hydrochloride solution (TCEP) were purchased from Sigma-Aldrich at the highest level of purity possible. ^3H-SAM was purchase from American Radiolabeled Chemicals with a specific activity of 80 Ci/mmol. 384-well streptavidin Flashplates were purchased from PerkinElmer.
Peptide representative of human histone H4 residues 36-50 was synthesized with an N-terminal linker-affinity tag motif and a C-terminal amide cap by 21st Century Biochemicals.
The amplified gene was subcloned into pFastBacMam (Viva Biotech).
Recombinant baculovirus were generated according to Bac-to-Bac kit instructions (Life Technologies). […] Infections were carried out at 37° C. for 48 hours, harvested by centrifugation, and stored at −80° C. for purification.
Column was washed with 20 mM imidazole in the same buffer and Flag-PRMT6-His was eluted with 150 mM imidazole. Pooled fractions were dialysed against buffer Ni-A and further purified by anti-flag M2 affinity chromatography. Flag-PRMT6-His was eluted with 200 ug/ml FLAG peptide in the same buffer. Pooled fractions were dialysed in 20 mM Tris, 150 mM NaCl, 10% glycerol and 5 mM β-mercaptoethanol, pH 7.8.
General Procedure for PRMT6 Enzyme Assays on Peptide Substrates.
as §1, with “PRMT6,” for “PRMT1,”, “PRMT6” for “PRMT1”, “400” for “300”
as §2, §3

The subject of test [1] is mono-methyl arginine in RKO cells. Put plainly: RKO Methylation Assay, In Cell Western (ICW). Type of test: cell-based. Particulars: 72 hours. The source says: RKO adherent cells were purchased from ATCC (American Type Culture Collection), Manassas, Va., USA. DMEM/Glutamax medium, penicillin-streptomycin, heat inactivated fetal bovine serum, 0.05% trypsin and D-PBS were purchased from Life Technologies, Grand Island, N.Y., USA. Odyssey blocking buffer, 800CW goat anti-rabbit IgG (H+L) antibody, and Licor Odyssey infrared scanner were purchased from Licor Biosciences, Lincoln, Nebr., USA. Mono-methyl arginine antibody was purchased from Cell Signaling Technology, Danvers, Mass., USA. Methanol was purchased from VWR, Franklin, Mass., USA. 10% Tween 20 was purchased from KPL, Inc., Gaithersburg, Md., USA. DRAQ5 was purchased from Biostatus Limited, Leicestershire, UK.
RKO adherent cells were maintained in growth medium (DMEM/Glutamax medium supplemented with 10% v/v heat inactivated fetal bovine serum and 100 units/mL penicillin-streptomycin) and cultured at 37° C. under 5% CO2.
Cell treatment, In Cell Western (ICW) for detection of mono-methyl arginine and DNA content.
Compound (100 nL) from a 96-well source plate was added directly to 384 well cell plate. Plates were incubated at 37° C., 5% CO2 for 72 hours. After three days of incubation, plates were brought to room temperature outside of the incubator for ten minutes and blotted on paper towels to remove cell media. 50 μL of ice cold 100% methanol was added directly to each well and incubated for 30 min at room temperature. After 30 min, plates were transferred to a Biotek EL406 plate washer and washed 2 times with 100 μL per well of wash buffer (1×PBS). Next 60 μL per well of Odyssey blocking buffer (Odyssey Buffer with 0.1% Tween 20 (v/v)) were added to each plate and incubated 1 hour at room temperature. Blocking buffer was removed and 20 μL per well of primary antibody was added (mono-methyl arginine diluted 1:200 in Odyssey buffer with 0.1% Tween 20 (v/v)) and plates were incubated overnight (16 hours) at 4° C. Plates were washed 5 times with 100 μL per well of wash buffer. […] The plates were washed 5 times with 100 μL per well wash buffer then 2 times with 100 μL per well of water. Plates were allowed to dry at room temperature then imaged on the Licor Odyssey machine which measures integrated intensity at 700 nm and 800 nm wavelengths. Both 700 and 800 channels were scanned.
First, the ratio for each well was determined by:
Each plate included fourteen control wells of DMSO only treatment (minimum activation) as well as fourteen control wells for maximum activation treated with 20 μM of a reference compound. The average of the ratio values for each control type was calculated and used to determine the percent activation for each test well in the plate. Reference compound was serially diluted three-fold in DMSO for a total of nine test concentrations, beginning at 20 μM. Percent activation was determined and EC30 curves were generated using triplicate wells per concentration of compound.

The target of the next test is human PRMT8 (Homo sapiens, UniProt Q9NR22). Put plainly: PRMT8 Biochemical Assay. The following applies: PRMT8 IC50 (uM), peptide substrate, 3H-SAM Flashplate assay.
The mark [2] stands for this setting: peptide substrate, 3H-SAM Flashplate assay, read-out: PRMT6 IC50.

SMILES strings stand for the structures. Where two headings read alike, the source gives them in different places.

T1 sequence (Q99873 with tags, fused parts or gaps): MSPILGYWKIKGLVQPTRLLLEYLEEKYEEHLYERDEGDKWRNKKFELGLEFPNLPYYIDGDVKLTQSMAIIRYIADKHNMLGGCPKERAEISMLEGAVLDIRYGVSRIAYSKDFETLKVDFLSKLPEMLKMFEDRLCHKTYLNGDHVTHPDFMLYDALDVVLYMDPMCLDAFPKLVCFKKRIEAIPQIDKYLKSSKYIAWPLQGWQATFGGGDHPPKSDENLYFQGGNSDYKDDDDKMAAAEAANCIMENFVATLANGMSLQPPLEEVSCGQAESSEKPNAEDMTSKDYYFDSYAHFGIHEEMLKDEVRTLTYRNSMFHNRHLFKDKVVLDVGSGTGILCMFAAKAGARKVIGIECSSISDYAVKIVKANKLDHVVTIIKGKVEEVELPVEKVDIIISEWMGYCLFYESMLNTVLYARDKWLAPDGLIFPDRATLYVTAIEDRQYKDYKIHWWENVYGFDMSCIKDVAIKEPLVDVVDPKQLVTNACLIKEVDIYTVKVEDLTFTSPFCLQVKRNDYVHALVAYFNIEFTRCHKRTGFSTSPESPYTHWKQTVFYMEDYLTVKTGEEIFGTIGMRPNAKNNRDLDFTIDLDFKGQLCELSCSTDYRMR
human PRMT8, sequence (Q9NR22 whole entry): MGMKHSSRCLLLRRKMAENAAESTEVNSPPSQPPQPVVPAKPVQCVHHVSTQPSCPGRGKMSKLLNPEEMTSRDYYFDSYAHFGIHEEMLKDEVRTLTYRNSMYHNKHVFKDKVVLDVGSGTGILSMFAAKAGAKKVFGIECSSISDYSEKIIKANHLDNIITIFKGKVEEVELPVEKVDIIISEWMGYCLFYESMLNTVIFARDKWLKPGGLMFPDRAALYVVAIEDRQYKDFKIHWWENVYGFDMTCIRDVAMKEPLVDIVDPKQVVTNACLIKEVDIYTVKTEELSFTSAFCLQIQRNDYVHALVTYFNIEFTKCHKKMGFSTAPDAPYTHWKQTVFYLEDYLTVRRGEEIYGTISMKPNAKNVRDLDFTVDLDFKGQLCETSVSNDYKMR
T2 sequence (Q96LA8 with tags, fused parts or gaps): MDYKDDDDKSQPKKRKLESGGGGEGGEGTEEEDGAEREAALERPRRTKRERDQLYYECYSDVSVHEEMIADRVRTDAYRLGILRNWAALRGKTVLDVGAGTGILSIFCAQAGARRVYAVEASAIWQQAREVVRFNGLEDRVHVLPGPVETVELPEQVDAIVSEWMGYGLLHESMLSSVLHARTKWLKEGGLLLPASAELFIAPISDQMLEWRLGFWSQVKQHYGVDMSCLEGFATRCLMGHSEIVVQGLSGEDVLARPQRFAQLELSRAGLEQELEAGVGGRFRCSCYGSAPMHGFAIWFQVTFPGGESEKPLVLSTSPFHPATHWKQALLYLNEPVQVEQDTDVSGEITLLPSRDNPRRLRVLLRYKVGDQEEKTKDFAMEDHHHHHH

Turning to `CNCCN(C)Cc1c[nH]nc1-c1cc(Cl)c(OCC(C)C)c(Cl)c1` [Compound 1], the IC50 (as a rule, the concentration that gives 50% inhibition) was 3.51 nM on human PRMT1, 0.0104 µM against human PRMT6 (PRMT6 IC50 (uM)) and 0.0173 µM against human PRMT8. Further, the “ICW EC30” value in test [1] was 380 nM.
Consider `CNCCN(C)Cc1c[nH]nc1-c1cc(Cl)c(OCC2CCC2)c(Cl)c1` [Compound 2], for which the figures for the IC50 at human PRMT1, on human PRMT6 (setting [2]) and on human PRMT8 were 3.61 nM, 0.012 µM and 0.0218 µM, respectively. Further, the “ICW EC30” value in test [1] came out at 304 nM.
On the same counts, the results for `CNCCN(C)Cc1c[nH]nc1-c1cc(F)c(OCC2CC2)c(C(F)(F)F)c1` [Compound 3] are 3.98 nM, 0.0195 µM, 0.0219 µM and 664 nM.
On the same counts, the results for `CNCCN(C)Cc1c[nH]nc1-c1cc(F)c(OCC2CCC2)c(C(F)(F)F)c1` [Compound 5] are 4.58 nM, 0.00685 µM, 0.0122 µM and 468 nM.
On the same counts, the results for `CNCCN(C)Cc1c[nH]nc1-c1ccc(OCCOc2ccc(Oc3ccccc3)cc2)cc1` [Compound 6] are 4.79 nM, 0.00343 µM, 0.0192 µM and 328.2 nM.
With `C=C(C)COc1c(Cl)cc(-c2n[nH]cc2CN(C)CCNC)cc1Cl` [Compound 7], the IC50 at human PRMT1 is 4.86 nM; on human PRMT6 (setting [2]), 0.0131 µM; against human PRMT8, 0.0124 µM. Besides, the “ICW EC30” value in test [1] came out at 91.54 nM.
In the case of `CNCCN(C)Cc1c[nH]nc1-c1ccc(OCCOc2cccc(OCCN3CCOCC3)c2)cc1` [Compound 8], the IC50 was found to be 4.91 nM on human PRMT1, 0.00449 µM on human PRMT6 (setting [2]) and 0.00939 µM on human PRMT8. For the same molecule, the “ICW EC30” value in test [1] came out at 233.7 nM.
`CNCCN(C)Cc1c[nH]nc1-c1ccc(OCCOc2ccc(OCc3ccccc3)cc2)cc1` [Compound 9]: the IC50 is 5.12 nM on human PRMT1, 0.00222 µM at human PRMT6 (setting [2]) and 0.024 µM at human PRMT8. Moreover, the “ICW EC30” value in test [1] was 329.1 nM.
For `CNCCN(C)Cc1c[nH]nc1-c1ccc(N(C)CCCOc2ccc(OC)cc2)cc1` [Compound 10] the same measures were 5.21 nM, 0.00825 µM, 0.0124 µM and 176.2 nM.
On the same counts, the results for `CNCCN(C)Cc1c[nH]nc1-c1ccc(OCCOc2ccc(C3CCOCC3)cc2)cc1` [Compound 11] are 5.23 nM, 0.00403 µM, 0.0133 µM and 113.8 nM.
For `CNCCN(C)Cc1c[nH]nc1-c1ccc(N(C)CCCOc2ccc(OC)cc2)cc1` [Compound 12] the same measures were 5.25 nM, 0.0146 µM, 0.0264 µM and 449.8 nM.
Take `CNCCN(C)Cc1c[nH]nc1-c1ccc(OCCOc2cccc(OCCC3CCOCC3)c2)cc1` [Compound 14]: the values for the IC50 at human PRMT1, at human PRMT6 (setting [2]) and against human PRMT8 were 5.49 nM, 0.00518 µM and 0.0146 µM, respectively. The “ICW EC30” value in test [1] amounted to 347.3 nM.
For `CNCCN(C)Cc1c[nH]nc1-c1ccc(OCCOc2ccc(Oc3ccc(OCCOC)cc3)cc2)cc1` [Compound 15] the same measures were 5.79 nM, 0.00238 µM, 0.0193 µM and 220.1 nM.
Regarding `CNCCN(C)Cc1c[nH]nc1-c1ccc(OCCOc2ccc(CO)cc2)cc1` [Compound 16], the IC50 is 5.8 nM on human PRMT1, 0.0037 µM at human PRMT6 (setting [2]) and 0.0206 µM on human PRMT8. Moreover, the “ICW EC30” value in test [1] is 276.3 nM.
As for `CCC(CC)Oc1ccc(-n2nccc2CN(C)CCNC)cc1` [Compound 18], the values for the IC50 at human PRMT1, against human PRMT6 (PRMT6 IC50 (uM)) and against human PRMT8 were 5.86 nM, 0.0678 µM and 0.0153 µM, respectively. Also, the “ICW EC30” value in test [1] came to 91.46 nM.
As for `CCN(CCOc1ccc(OC)cc1)c1ccc(-c2n[nH]cc2CN(C)CCNC)cc1` [Compound 20], the results for the IC50 at human PRMT1, on human PRMT6 (setting [2]) and on human PRMT8 were 6.16 nM, 0.0169 µM and 0.0199 µM, respectively. Besides, the “ICW EC30” value in test [1] turned out to be 336.2 nM.
